Assay [1] addresses human TYK2 (JH2domain-pseudokinase) (Homo sapiens (Human), UniProt P29597). As to the kind of experiment: TYK2 JH2 Domain Binding Assay (KINOMEscan). To be noted: 11-point 3-fold dilution, top concentration 30,000 nM, duplicate. In a few lines:
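Competition binding used an NFkB-DNA-tagged fusion of TYK2 JH2 (G556–D888) expressed in HEK293 extracts against an immobilised ligand, 1 h at room temperature. Bead-bound kinase was quantified by qPCR. Kd came from an 11-point 3-fold series with a 30,000 nM top concentration and 0.9% DMSO, Hill slope −1, run in duplicate.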

For assay [2], the target named is TYK2 kinase domain (JH1) (Homo sapiens (Human), UniProt P29597). As to the kind of experiment: TYK2 Radioactive Kinase Assay. It is filed as biochemical. Conditions: compound at 10 μM; ATP at 10 μM; 120 min at room temp. On the procedure: (§1) Peptide substrate, [KKSRGDYMTMQIG], (20 μM) was prepared in reaction buffer (20 mM Hepes pH 7.5, 10 mM MgCl2, 1 mM EGTA, 0.02% Brij35, 0.02 mg/mL BSA, 0.1 mM […], 2 mM DTT, 1% DMSO). TYK2 (Invitrogen) kinase was added, followed by compounds in DMSO. ^33PATP was added to initiate the reaction in ATP at 10 μM. The kinase reaction was incubated for 120 min at room temp and reactions were spotted onto P81 ion exchange paper (Whatman #3698-915), and then washed extensively in 0.75% phosphoric acid, prior to reading the radioactivity counts. For JAK2 (Invitrogen) kinase assay the peptide substrate poly[Glu:Tyr](4:1), 0.2 mg/ml was used, in the reaction carried out the same as for TYK2.
Sequence of TYK2 kinase domain (JH1) (P29597 897-1176): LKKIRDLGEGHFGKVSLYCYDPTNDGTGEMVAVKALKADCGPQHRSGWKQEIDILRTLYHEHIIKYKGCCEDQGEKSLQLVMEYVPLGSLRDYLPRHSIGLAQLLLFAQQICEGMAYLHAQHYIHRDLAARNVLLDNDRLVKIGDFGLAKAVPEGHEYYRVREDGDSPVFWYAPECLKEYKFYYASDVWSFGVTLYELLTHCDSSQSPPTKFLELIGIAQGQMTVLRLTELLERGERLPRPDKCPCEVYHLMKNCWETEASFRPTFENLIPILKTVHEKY
(§2) The TYK2 and JAK2 radioactive kinase assay measures the percent inhibition at the TYK2 kinase domain (JH1) and the percent inhibition at the JAK2 kinase domain (JH1). Results of the assay are expressed as percent inhibition at 10 μM.

For assay [3], the target named is JAK2 kinase domain (JH1) (Homo sapiens (Human), UniProt O60674). As to the kind of experiment: JAK2 Radioactive Kinase Assay. It is filed as biochemical. To be noted: compound at 10 μM; ATP at 10 μM; substrate poly[Glu:Tyr](4:1). Here is the method: as §1, §2
Sequence of JAK2 kinase domain (JH1) (O60674 849-1124): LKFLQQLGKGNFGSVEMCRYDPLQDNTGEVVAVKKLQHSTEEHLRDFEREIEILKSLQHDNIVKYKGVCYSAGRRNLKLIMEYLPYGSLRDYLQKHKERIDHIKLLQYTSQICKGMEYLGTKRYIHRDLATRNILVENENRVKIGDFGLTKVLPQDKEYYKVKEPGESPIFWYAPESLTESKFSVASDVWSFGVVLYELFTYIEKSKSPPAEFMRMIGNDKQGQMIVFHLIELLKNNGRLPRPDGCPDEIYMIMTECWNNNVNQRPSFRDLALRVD
Assay [4] has as its system IL-12 induced STAT4 phophorylation mediated by TYK2/JAK2 (heterodimeric complex). As to the kind of experiment: IL-12 Induced pSTAT4 in Human PBMC. It is filed as cell-based. Conditions: 1.7 ng/mL IL-12 for 30 minutes, 1 hr compound preincubation. Here is the method: (§3) Human PBMC were isolated from buffy coat and were stored frozen for assays as needed. Cells for assay were thawed and resuspended in complete media containing serum, then cells were diluted to 1.67 E6 cells/mL so that 120 μl per well is 200,000 cells. 15 μl of compound or DMSO was added to the well at the desired concentrations and incubated at 1 hr at 37 C. 15 μl of stimulus (final concentration of 1.7 ng/mL IL-12) was added for 30 minutes prior to pSTAT4 and total STAT4 analysis using cell lysates prepared and analyzed by MSD reagents as per manufacturer protocol. The final DMSO concentration of compound in the assay was 0.1%.
The IL-12 Induced pSTAT4 assay evaluates the inhibition of IL-12 induced STAT4 phophorylation mediated by TYK2/JAK2 (heterodimeric complex).

The test system of assay [5] is GM-CSF induced STAT5 phopsphorylation mediated by the JAK2/JAK2 homodimeric complex. Nature of the assay: GM-CSF Induced pSTAT5 in Human PBMC. It is filed as cell-based. Conditions: 20 min, GM-CSF 5 ng/mL for 20 minutes, read-out: PBMC_GMCSF_pSTAT5 IC50. Here is the method: as §3
Cells were prepared for analysis as in the above procedure and 15 μl of GM-CSF (final concentration 5 ng/mL) was added for 20 minutes prior to pSTAT5 and total STAT5 analysis using cell lysates prepared and analyzed by MSD reagents as per manufacturer protocol. The final DMSO concentration of compound in the assay was 0.1%.
The GM-CSF Induced pSTAT5 assay is a JAK2 cellular selectivity assay which evaluates inhibition of GM-CSF induced STAT5 phopsphorylation mediated by the JAK2/JAK2 homodimeric complex.

One may read the Kd as a measure of binding affinity in units of concentration. A word on the inhibition: it is the percentage by which the read-out fell short of the control. By IC50 is commonly meant the concentration that gives 50% inhibition.

Sequence of human TYK2 (JH2domain-pseudokinase) (P29597 556-888): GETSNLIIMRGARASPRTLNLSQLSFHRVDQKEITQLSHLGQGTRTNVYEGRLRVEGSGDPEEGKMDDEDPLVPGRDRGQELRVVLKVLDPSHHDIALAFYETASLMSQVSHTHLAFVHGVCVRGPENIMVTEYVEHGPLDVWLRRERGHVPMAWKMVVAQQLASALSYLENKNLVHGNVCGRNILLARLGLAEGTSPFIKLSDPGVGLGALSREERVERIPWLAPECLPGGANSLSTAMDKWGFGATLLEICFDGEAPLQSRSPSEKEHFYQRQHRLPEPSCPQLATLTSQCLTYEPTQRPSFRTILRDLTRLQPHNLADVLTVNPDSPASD

Molecule `CNC(=O)c1cnc(NC(=O)C2CC2)c2[nH]c(-c3ccccc3)cc12` [Compound I-1, 7-(cyclopropanecarboxamido)-N-methyl-2-phenyl-1H-pyrrolo[2,3-c]pyridine-4-carboxamide] gave a Kd in assay [1] of 1 to 10 nM. The inhibition at 10 µM in assay [2] and in assay [3] was less than 50% each time. For the same molecule, the IC50 in assay [4] is 500 to 1000 nM; in assay [5], greater than 50000 nM.

In assay [1], `CNC(=O)c1cnc(NC(=O)C2CC2)c2[nH]c(-c3cccc(-c4ncn(C)n4)c3)cc12` [Compound I-2, 7-(cyclopropanecarboxamido)-N-methyl-2-(3-(1-methyl-1H-1,2,4-triazol-3-yl)phenyl)-1H-pyrrolo[2,3-c]pyridine-4-carboxamide] showed a Kd of less than 0.2 nM. For the same molecule, the inhibition at 10 µM in assay [2] and in assay [3] was less than 50% each time. For the same molecule, the IC50 was less than 100 nM in assay [4] and greater than 50000 nM in assay [5].

`CNC(=O)c1cnc(NC(=O)C2CC2)c2[nH]c(-c3ccc(C(=O)N4CCC4)cc3F)cc12` [Compound I-42, 2-(4-(azetidine-1-carbonyl)-2-fluorophenyl)-7-(cyclopropanecarboxamido)-N-methyl-1H-pyrrolo[2,3-c]pyridine-4-carboxamide]: in assay [1], the Kd is less than 0.2 nM. The same molecule had a concentration for half-maximal inhibition (IC50) in assay [4] of less than 100 nM.

Turning to `CNC(=O)c1cnc(NC(=O)C2CC2)c2[nH]c(-c3cccc(-c4nnn(C)n4)c3F)cc12` [Compound I-52, 7-(cyclopropanecarboxamido)-2-(2-fluoro-3-(2-methyl-2H-tetrazol-5-yl)phenyl)-N-methyl-1H-pyrrolo[2,3-c]pyridine-4-carboxamide], in assay [1], the equilibrium dissociation constant (Kd) is less than 0.2 nM. The same molecule gave an IC50 in assay [4] of less than 100 nM.

Consider `CNC(=O)c1cnc(NC(=O)C2CC2)c2[nH]c(-c3cccc(-c4cn(C)cn4)c3F)cc12` [Compound I-48, 7-(cyclopropanecarboxamido)-2-(2-fluoro-3-(1-methyl-1H-imidazol-4-yl)phenyl)-N-methyl-1H-pyrrolo[2,3-c]pyridine-4-carboxamide], for which the Kd in assay [1] was less than 0.2 nM. The molecule also returned an IC50 in assay [4] of less than 100 nM.

`CNC(=O)c1cnc(NC(=O)C2CC2)c2[nH]c(-c3ccc(C(=O)N4CCC4)cc3OC)cc12` [Compound I-24, 2-(4-(azetidine-1-carbonyl)-2-methoxyphenyl)-7-(cyclopropanecarboxamido)-N-methyl-1H-pyrrolo[2,3-c]pyridine-4-carboxamide] showed a dissociation constant (Kd) in assay [1] of less than 0.2 nM. The inhibition at 10 µM in assay [2] and in assay [3] was less than 50% throughout. Further, the IC50 in assay [4] is less than 100 nM.

The molecule `CNC(=O)c1cnc(NC(=O)C2CC2)c2[nH]c(-c3ccccc3C3(S(C)(=O)=O)CC3)cc12` [Compound I-5, 7-(cyclopropanecarboxamido)-N-methyl-2-(2-(1-(methylsulfonyl)cyclopropyl)phenyl)-1H-pyrrolo[2,3-c]pyridine-4-carboxamide] came in with a Kd in assay [1] of 1 to 10 nM. Further, the inhibition at 10 µM in assay [2] and in assay [3] was less than 50% throughout.

Turning to `CNC(=O)c1cnc(NC(=O)C2CC2)c2[nH]c(-c3cc(-c4ccn(C)n4)cnc3OC3CC3)cc12` [Compound I-38, 7-(cyclopropanecarboxamido)-2-(2-cyclopropoxy-5-(1-methyl-1H-pyrazol-3-yl)pyridin-3-yl)-N-methyl-1H-pyrrolo[2,3-c]pyridine-4-carboxamide], the Kd in assay [1] was in the range of 1 to 10 nM. In addition, the inhibition at 10 µM in assay [2] and in assay [3] was less than 50% throughout.

`CNC(=O)c1cnc(NC(=O)C2CC2)c2[nH]c(-c3cc(-c4ncn(C)n4)ccn3)cc12` [Compound I-13, 7-(cyclopropanecarboxamido)-N-methyl-2-(4-(1-methyl-1H-1,2,4-triazol-3-yl)pyridin-2-yl)-1H-pyrrolo[2,3-c]pyridine-4-carboxamide]: the Kd in assay [1] is less than 0.2 nM. The inhibition at 10 µM in assay [2] and in assay [3] was less than 50% throughout.

Turning to `[2H]C([2H])([2H])NC(=O)c1cnc(NC(=O)C2CC2)c2[nH]c(-c3cccc(-c4ncn(C)n4)c3)cc12` [Compound I-6, 7-(cyclopropanecarboxamido)-N-(methyl-d3)-2-(3-(1-methyl-1H-1,2,4-triazol-3-yl)phenyl)-1H-pyrrolo[2,3-c]pyridine-4-carboxamide], in assay [1], the Kd was less than 0.2 nM. In addition, the inhibition at 10 µM in assay [2] and in assay [3] was less than 50% each time.

In assay [1], `CNC(=O)c1cnc(NC(=O)C2CC2)c2[nH]c(-c3ccc(C4=NC(C)(C)CO4)cc3OC)cc12` [Compound I-9, 7-(cyclopropanecarboxamido)-2-(4-(4,4-dimethyl-4,5-dihydrooxazol-2-yl)-2-methoxyphenyl)-N-methyl-1H-pyrrolo[2,3-c]pyridine-4-carboxamide] came in with a Kd of 0.2 to 1 nM. In addition, the inhibition at 10 µM in assay [2] and in assay [3] was less than 50% each time.

Regarding `CNC(=O)c1cnc(NC(=O)C2CC2)c2[nH]c(-c3cc(-c4nccs4)cnc3OC3CC3)cc12` [Compound I-39, 7-(cyclopropanecarboxamido)-2-(2-cyclopropoxy-5-(thiazol-2-yl)pyridin-3-yl)-N-methyl-1H-pyrrolo[2,3-c]pyridine-4-carboxamide], the Kd in assay [1] is 1 to 10 nM. In addition, the inhibition at 10 µM in assay [2] and in assay [3] was less than 50% each time.

As for `CNC(=O)c1cnc(NC(=O)C2CC2)c2[nH]c(-c3cccc(-n4ccc(C)n4)c3)cc12` [Compound I-7, 7-(cyclopropanecarboxamido)-N-methyl-2-(3-(3-methyl-1H-pyrazol-1-yl)phenyl)-1H-pyrrolo[2,3-c]pyridine-4-carboxamide], the Kd in assay [1] is 0.2 to 1 nM. Also, the inhibition at 10 µM in assay [2] and in assay [3] was less than 50% in each case.

`CNC(=O)c1cnc(NC(=O)C2CC2)c2[nH]c(-c3cccn(-c4ncc(C)s4)c3=O)cc12` [Compound I-54, 7-(cyclopropanecarboxamido)-N-methyl-2-(1-(5-methylthiazol-2-yl)-2-oxo-1,2-dihydropyridin-3-yl)-1H-pyrrolo[2,3-c]pyridine-4-carboxamide]: the Kd in assay [1] is less than 0.2 nM. The same molecule came in with an IC50 in assay [4] of 100 to 500 nM.

`CCOc1ncc(-c2ccn(C)n2)cc1-c1cc2c(C(=O)NC)cnc(NC(=O)C3CC3)c2[nH]1` [Compound I-37, 7-(cyclopropanecarboxamido)-2-(2-ethoxy-5-(1-methyl-1H-pyrazol-3-yl)pyridin-3-yl)-N-methyl-1H-pyrrolo[2,3-c]pyridine-4-carboxamide] displayed a Kd in assay [1] of 1 to 10 nM. Moreover, the inhibition at 10 µM in assay [2] and in assay [3] was less than 50% throughout.

For the molecule `CNC(=O)c1cnc(NC(=O)C2CC2)c2[nH]c(-c3ccc(=O)n(C4CC4)c3)cc12` [Compound I-40, 7-(cyclopropanecarboxamido)-2-(1-cyclopropyl-6-oxo-1,6-dihydropyridin-3-yl)-N-methyl-1H-pyrrolo[2,3-c]pyridine-4-carboxamide], the Kd in assay [1] lay within 1 to 10 nM. The inhibition at 10 µM in assay [2] and in assay [3] was less than 50% throughout.

For the molecule `CNC(=O)c1cnc(NC(=O)C2CC2)c2[nH]c(-c3cccnc3OC3CC3)cc12` [Compound I-34, 7-(cyclopropanecarboxamido)-2-(2-cyclopropoxypyridin-3-yl)-N-methyl-1H-pyrrolo[2,3-c]pyridine-4-carboxamide], the Kd in assay [1] is less than 0.2 nM. Moreover, the inhibition at 10 µM in assay [2] and in assay [3] was less than 50% throughout.
